This is an account of results in US11793823B2, “Compounds and pharmaceutical uses thereof” (SyneuRx International (Taiwan) Corp., priority 2020, dated 2023).

pIC50: −log10 of the molar value.

A word on the pIC50: it is −log10 of the IC50, conventionally taken in molar units. A higher pIC50 goes with a low IC50.

Chain of human D-amino acid oxidase (hDAAO) (P14920 whole entry): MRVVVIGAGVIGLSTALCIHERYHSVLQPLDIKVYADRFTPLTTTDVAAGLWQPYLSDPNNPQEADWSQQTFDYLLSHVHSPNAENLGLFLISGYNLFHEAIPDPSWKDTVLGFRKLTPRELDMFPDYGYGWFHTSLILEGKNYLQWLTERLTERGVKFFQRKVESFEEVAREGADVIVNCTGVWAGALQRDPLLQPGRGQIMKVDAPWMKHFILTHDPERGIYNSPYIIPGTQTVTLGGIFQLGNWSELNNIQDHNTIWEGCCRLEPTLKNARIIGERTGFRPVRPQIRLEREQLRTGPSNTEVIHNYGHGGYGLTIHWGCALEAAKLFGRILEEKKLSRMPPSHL

The target of this experiment is human D-amino acid oxidase (hDAAO) (Homo sapiens (Human), UniProt P14920). Nature of the experiment: In vitro human D-amino acid oxidase (hDAAO) activity, D-Serine/Amplex Red fluorescence. In kind it is biochemical. The note with it: D-Serine substrate, 20 min. As to the method:
The hDAAO inhibitory activities were measured by using D-Serine as a substrate to produce H2O2. The produced H2O2 would be oxidized by peroxidase, and the produced free radicals would further react with Amplex Red reagent to emit fluorescence. The intensity of fluorescence at 590 nm would be measured to represent the activity of hDAAO. All compounds were dissolved in DMSO. Each compound was diluted with DMSO in 3-fold serial dilution to create a dose response curve. Each sample was added in triplicate, 1 µL/well, into 96-well black plates. Positive control wells were added with 1 μL of DMSO. Then 49 μL of assay buffer (100 mM Tris-HCl, pH 8.5) containing 1.2 ng/mL hDAAO, 900 nM FAD, 0.2 units/mL HRP, and 100 μM Amplex Red was added to each well of the plate using a multichannel pipette. Next, 50 μL of 100 mM D-Serine in assay buffer was added. The reaction plates were then incubated in the dark at room temperature. The fluorescence readout was detected at 0 and 20 mins by Molecular Device Gemini EM fluorescence reader using the following settings: excitation filter 530 nm, and emission filter 590 nm. The percentage of inhibition values for each well was calculated with the following equation: The percentage of inhibition=(fluorescence sample, 20 min−fluorescence sample, 0 min)/(fluorescence DMSO, 20 min−fluorescence DMSO, 0 min)×100%
The nonlinear curve fitting model in GraphPad Prism was used to calculate IC50 value for each compound.
The compound `O=C(OC[C@H]1O[C@@H](OC(=O)c2cc(O)c(O)c(OC(=O)c3cc(O)c(O)c(O)c3)c2)[C@H](OC(=O)c2cc(O)c(O)c(OC(=O)c3cc(O)c(O)c(O)c3)c2)[C@@H]1OC(=O)c1cc(O)c(O)c(OC(=O)c2cc(O)c(O)c(O)c2)c1)c1cc(O)c(O)c(OC(=O)c2cc(O)c(O)c(O)c2)c1` [Compound 142, (2S,3R,4R,5R)-5-(((3,4-dihydroxy-5-((3,4,5-trihydroxybenzoyl)oxy)benzoyl)oxy)methyl)tetrahydrofuran-2,3,4-triyl tris(3,4-dihydroxy-5-((3,4,5-trihydroxybenzoyl)oxy)benzoate)] gave a pIC50 of 7.72. To `O=C(Oc1cc(C(=O)Oc2cc(C(=O)O[C@@H]3OC[C@@H](OC(=O)c4cc(O)c(O)c(OC(=O)c5cc(O)c(O)c(OC(=O)c6cc(O)c(O)c(O)c6)c5)c4)[C@H](OC(=O)c4cc(O)c(O)c(OC(=O)c5cc(O)c(O)c(OC(=O)c6cc(O)c(O)c(O)c6)c5)c4)[C@H]3OC(=O)c3cc(O)c(O)c(OC(=O)c4cc(O)c(O)c(OC(=O)c5cc(O)c(O)c(O)c5)c4)c3)cc(O)c2O)cc(O)c1O)c1cc(O)c(O)c(O)c1` [Compound 126, (2S,3R,4S,5R)-tetrahydro-2H-pyran-2,3,4,5-tetrayl tetrakis(3-((3,4-dihydroxy-5-((3,4,5-trihydroxybenzoyl)oxy)benzoyl)oxy)-4,5-dihydroxybenzoate)] belongs 8.44. `O=C(Oc1cc(C(=O)Oc2cc(C(=O)Oc3cc(C(=O)Oc4cc(C(=O)OC5CCCCC5)cc(O)c4O)cc(O)c3O)cc(O)c2O)cc(O)c1O)c1cc(O)c(O)c(O)c1` [Compound 96, Cyclohexyl 3-((3-((3-((3,4-dihydroxy-5-((3,4,5-trihydroxybenzoyl)oxy)benzoyl)oxy)-4,5-dihydroxybenzoyl)oxy)-4,5-dihydroxybenzoyl)oxy)-4,5-dihydroxybenzoate]: the pIC50 is 7.59. Consider `O=C(O)c1cc(O)c(O)c(OC(=O)c2cc(O)c(O)c(OC(=O)c3cc(O)c(O)c(OC(=O)c4cc(O)c(O)c(OC(=O)c5cc(O)c(O)c(OC(=O)c6cc(CCc7cc(F)cc(F)c7)n[nH]6)c5)c4)c3)c2)c1` [Compound 58, 3-((3-((3-((3-((3-((3-(3,5-difluorophenethyl)-1H-pyrazole-5-carbonyl)oxy)-4,5-dihydroxybenzoyl)oxy)-4,5-dihydroxybenzoyl)oxy)-4,5-dihydroxybenzoyl)oxy)-4,5-dihydroxybenzoyl)oxy)-4,5-dihydroxybenzoic acid], for which the pIC50 was 7.48. In the case of `O=C(Oc1cc(OC(=O)c2cc(O)c(O)c(OC(=O)c3cc(O)c(O)c(OC(=O)c4cc(O)c(O)c(OC(=O)c5cc(O)c(O)c(OC(=O)c6cc(O)c(O)c(O)c6)c5)c4)c3)c2)cc(OC(=O)c2cc(CCc3ccc(C(F)(F)F)cc3)n[nH]2)c1)c1cc(O)c(O)c(OC(=O)c2cc(O)c(O)c(OC(=O)c3cc(O)c(O)c(OC(=O)c4cc(O)c(O)c(OC(=O)c5cc(O)c(O)c(O)c5)c4)c3)c2)c1` [Compound 107, 5-((3-(4-(trifluoromethyl)phenethyl)-1H-pyrazole-5-carbonyl)oxy)-1,3-phenylene bis(3-((3-((3-((3,4-dihydroxy-5-((3,4,5-trihydroxybenzoyl)oxy)benzoyl)oxy)-4,5-dihydroxybenzoyl)oxy)-4,5-dihydroxybenzoyl)oxy)-4,5-dihydroxybenzoate)], the pIC50 is 8.15.

Regarding `O=C(Oc1cc(C(=O)O[C@H]2OC[C@@H](OC(=O)c3cc(O)c(O)c(OC(=O)c4cc(O)c(O)c(O)c4)c3)[C@H](OC(=O)c3cc(O)c(O)c(OC(=O)c4cc(O)c(O)c(O)c4)c3)[C@H]2OC(=O)c2cc(O)c(O)c(OC(=O)c3cc(O)c(O)c(O)c3)c2)cc(O)c1O)c1cc(O)c(O)c(O)c1` [Compound 117, (2R,3R,4S,5R)-tetrahydro-2H-pyran-2,3,4,5-tetrayl tetrakis(3,4-dihydroxy-5-((3,4,5-trihydroxybenzoyl)oxy)benzoate)], the pIC50 was 8.05. The compound `O=C(O)c1cc(O)c(O)c(OC(=O)c2cc(O)c(O)c(OC(=O)c3cc(O)c(O)c(OC(=O)c4cc(O)c(O)c(OC(=O)c5cc(O)c(O)c(OC(=O)c6cc(CCc7cccc8c7CCCC8)n[nH]6)c5)c4)c3)c2)c1` [Compound 42, 3-((3-((3-((3-((3,4-dihydroxy-5-((3-(2-(5,6,7,8-tetrahydronaphthalen-1-yl)ethyl)-1H-pyrazole-5-carbonyl)oxy)benzoyl)oxy)-4,5-dihydroxybenzoyl)oxy)-4,5-dihydroxybenzoyl)oxy)-4,5-dihydroxybenzoyl)oxy)-4,5-dihydroxybenzoic acid] gave a pIC50 of 7.51. To “3-((3-((3-((3-((3-((3-((3-((1H-pyrrole-2-carbonyl)oxy)-4,5-dihydroxybenzoyl)oxy)-4,5-dihydroxybenzoyl)oxy)-4,5-dihydroxybenzoyl)oxy)-4,5-dihydroxybenzoic acid [Compound 28]” belongs 7.09; to `O=C(OC[C@H]1O[C@@H](OC(=O)c2cc(O)c(O)c(OC(=O)c3cc(O)c(O)c(OC(=O)c4cc(O)c(O)c(OC(=O)c5cc(O)c(O)c(O)c5)c4)c3)c2)[C@H](OC(=O)c2cc(O)c(O)c(OC(=O)c3cc(O)c(O)c(OC(=O)c4cc(O)c(O)c(OC(=O)c5cc(O)c(O)c(O)c5)c4)c3)c2)[C@@H]1OC(=O)c1cc(O)c(O)c(OC(=O)c2cc(O)c(O)c(OC(=O)c3cc(O)c(O)c(OC(=O)c4cc(O)c(O)c(O)c4)c3)c2)c1)c1cc(O)c(O)c(OC(=O)c2cc(O)c(O)c(OC(=O)c3cc(O)c(O)c(OC(=O)c4cc(O)c(O)c(O)c4)c3)c2)c1` [Compound 146, (2S,3R,4R,5R)-5-(((3-((3-((3,4-dihydroxy-5-((3,4,5-trihydroxybenzoyl)oxy)benzoyl)oxy)-4,5-dihydroxybenzoyl)oxy)-4,5-dihydroxybenzoyl)oxy)methyl)tetrahydrofuran-2,3,4-triyl tris(3-((3-((3,4-dihydroxy-5-((3,4,5-trihydroxybenzoyl)oxy)benzoyl)oxy)-4,5-dihydroxybenzoyl)oxy)-4,5-dihydroxybenzoate)], 8.40.

Compound `O=C(OC[C@H]1O[C@H](OC(=O)c2cc(O)c(O)c(OC(=O)c3cc(O)c(O)c(OC(=O)c4cc(O)c(O)c(O)c4)c3)c2)[C@H](OC(=O)c2cc(O)c(O)c(OC(=O)c3cc(O)c(O)c(OC(=O)c4cc(O)c(O)c(O)c4)c3)c2)[C@@H]1OC(=O)c1cc(O)c(O)c(OC(=O)c2cc(O)c(O)c(OC(=O)c3cc(O)c(O)c(O)c3)c2)c1)c1cc(O)c(O)c(OC(=O)c2cc(O)c(O)c(OC(=O)c3cc(O)c(O)c(O)c3)c2)c1` [Compound 136, (2R,3R,4R,5R)-5-(((3-((3,4-dihydroxy-5-((3,4,5-trihydroxybenzoyl)oxy)benzoyl)oxy)-4,5-dihydroxybenzoyl)oxy)methyl)tetrahydrofuran-2,3,4-triyl tris(3-((3,4-dihydroxy-5-((3,4,5-trihydroxybenzoyl)oxy)benzoyl)oxy)-4,5-dihydroxybenzoate)] had a pIC50 of 8.22. To `O=C(OC[C@H]1O[C@H](OC(=O)c2cc(O)c(O)c(OC(=O)c3cc(O)c(O)c(O)c3)c2)[C@H](OC(=O)c2cc(O)c(O)c(OC(=O)c3cc(O)c(O)c(O)c3)c2)[C@@H]1OC(=O)c1cc(O)c(O)c(OC(=O)c2cc(O)c(O)c(O)c2)c1)c1cc(O)c(O)c(OC(=O)c2cc(O)c(O)c(O)c2)c1` [Compound 134, (2R,3R,4R,5R)-5-(((3,4-dihydroxy-5-((3,4,5-trihydroxybenzoyl)oxy)benzoyl)oxy)methyl)tetrahydrofuran-2,3,4-triyl tris(3,4-dihydroxy-5-((3,4,5-trihydroxybenzoyl)oxy)benzoate)] belongs 8.10. In the case of `O=C(O)c1cc(O)c(O)c(OC(=O)c2cc(O)c(O)c(OC(=O)c3cc(O)c(O)c(OC(=O)c4cc(O)c(O)c(OC(=O)c5cc(O)c(O)c(OC(=O)c6ccc[nH]6)c5)c4)c3)c2)c1` [Compound 25, 3-((3-((3-((3-((3-((1H-pyrrole-2-carbonyl)oxy)-4,5-dihydroxybenzoyl)oxy)-4,5-dihydroxybenzoyl)oxy)-4,5-dihydroxybenzoyl)oxy)-4,5-dihydroxybenzoyl)oxy)-4,5-dihydroxybenzoic acid], the pIC50 is 7.05. On to `O=C(Oc1cc(C(=O)Oc2cc(C(=O)Oc3cc(C(=O)Oc4cc(C(=O)OC5CC5)cc(O)c4O)cc(O)c3O)cc(O)c2O)cc(O)c1O)c1cc(O)c(O)c(O)c1` [Compound 98, 5-((5-((5-((5-(cyclopropoxycarbonyl)-2,3-dihydroxyphenoxy)carbonyl)-2,3-dihydroxyphenoxy)carbonyl)-2,3-dihydroxyphenoxy)carbonyl)-2,3-dihydroxyphenyl 3,4,5-trihydroxybenzoate], for which the negative-log IC50 (pIC50) was 7.48. For the compound `O=C(Oc1cc(C(=O)Oc2cc(C(=O)O[C@H]3OC[C@@H](OC(=O)c4cc(O)c(O)c(OC(=O)c5cc(O)c(O)c(OC(=O)c6cc(O)c(O)c(O)c6)c5)c4)[C@H](OC(=O)c4cc(O)c(O)c(OC(=O)c5cc(O)c(O)c(OC(=O)c6cc(O)c(O)c(O)c6)c5)c4)[C@H]3OC(=O)c3cc(O)c(O)c(OC(=O)c4cc(O)c(O)c(OC(=O)c5cc(O)c(O)c(O)c5)c4)c3)cc(O)c2O)cc(O)c1O)c1cc(O)c(O)c(O)c1` [Compound 119, (2R,3R,4S,5R)-tetrahydro-2H-pyran-2,3,4,5-tetrayl tetrakis(3-((3,4-dihydroxy-5-((3,4,5-trihydroxybenzoyl)oxy)benzoyl)oxy)-4,5-dihydroxybenzoate)], the pIC50 is 8.30.
